This is an account of results in PubChem BioAssay AID1996.

SMILES strings stand for the structures. Values after ≈ are worked out from the molar mass of the structure shown.

The conditions of this series: buffer; pH 7.4; 200.0 µM.
`CC(Sc1nc2ccccc2[nH]1)C(=O)Nc1ccccc1F` (centres undefined): the kinetic solubility was 43.9 µg/mL (≈ 139 µM).
Next, `Cc1cc(NC(=O)c2cc(-c3ccncc3)nc3ccccc23)ccc1Br`: 1.2 µg/mL (≈ 2.87 µM); `Cc1nc2c(ncn2-c2ccccc2)c(=O)n1NC(=O)CN1CCCC1`: more than 52.9 µg/mL.
`O=C(Cc1ccc([N+](=O)[O-])cc1)Nc1ccc(Br)cn1` had a solubility (kinetic) of 2.4 µg/mL (≈ 7.14 µM).
For `Cc1ccc(/C=C2/SC(=S)N(CCC(=O)N3CCOCC3)C2=O)cc1`, the solubility (kinetic) is less than 0.4 µg/mL.
As to `COc1ccccc1C(=O)NCc1ccccn1`, the solubility (kinetic) is more than 36.3 µg/mL.
Molecule `COc1ccc(C(C)=O)cc1CSc1nnc(-c2ccncc2)n1C` yielded a solubility (kinetic) of more than 53.2 µg/mL.
`COC(=O)C1=C(C)N(c2ccc(OC)cc2)C(C)=C(C(=O)OC)C1c1ccccc1` registered a solubility (kinetic) of 1 µg/mL (≈ 2.45 µM).
`Cc1ccc(N2C(=O)C(CN3CCCCC3)C2c2ccccc2)cc1` (centres undefined) had a solubility (kinetic) of 27 µg/mL (≈ 80.7 µM).
The molecule `Cc1ccc(Nc2cc(=O)[nH]c(=O)[nH]2)cc1Cl` showed a solubility (kinetic) of 2 µg/mL (≈ 7.95 µM).
In the case of `COc1ccc2[nH]c(=O)c(CN(C(=O)c3cccnc3)c3cccc(C)c3)cc2c1`, the solubility (kinetic) is 3.9 µg/mL (≈ 9.76 µM).
Next, `COc1cc(CN2CCCCCC2)cc(OC)c1O`: 27 µg/mL (≈ 102 µM); `CC(C)c1ccc(NS(=O)(=O)c2ccc(N3C(=O)CCC3=O)cc2)cc1`: 43.6 µg/mL (≈ 117 µM).
As for `CCOc1ccc2[nH]cc(C(=O)NCc3ccccc3)c(=O)c2c1`, the kinetic solubility turned out to be 0.9 µg/mL (≈ 2.79 µM).
The molecule `CCC(=O)OCC(=O)Nc1ncc(C(F)(F)F)cc1Cl` gave a kinetic solubility of more than 46.6 µg/mL.
The molecule `C=CCN=C1CC(C)(C)C(C(=O)OC)C(O)=C1C(=O)CCC` (centres undefined) showed a solubility (kinetic) of more than 46.1 µg/mL.
The molecule `NC(=O)NC(CC(=O)N1CCc2ccccc2C1)c1ccc(Cl)cc1` (centres undefined) had a solubility (kinetic) of 49.9 µg/mL (≈ 139 µM).
On to `C=CC(=O)NC(NC(=O)C=C)c1ccccc1F`, for which the kinetic solubility is more than 37.2 µg/mL.
`O=C(NC1CCCCC1)c1ccccc1C(F)(F)F`: the solubility (kinetic) was found to be 38.9 µg/mL (≈ 143 µM).
Regarding `Cc1ccc(CNC(=O)COC(=O)c2ccc(S(=O)(=O)N3CCOCC3)cc2)cc1`, the kinetic solubility was found to be 6.5 µg/mL (≈ 15 µM).
The value for `Cl.c1cnc(N2CCNCC2)nc1` was more than 35.6 µg/mL.
In the case of `C=CCn1c(-c2ccc(Cl)cc2)cnc1SC(C)C(N)=O` (centres undefined), the kinetic solubility was found to be 7.1 µg/mL (≈ 22.1 µM).
As to `O=C(Nc1nc2ccsc2c(=O)s1)c1ccc(Cl)cc1`, the solubility (kinetic) is less than 0.3 µg/mL.
The molecule `COc1ccc(F)cc1S(=O)(=O)N1CCN(c2ccccn2)CC1` registered a solubility (kinetic) of 6.1 µg/mL (≈ 17.4 µM).
For `Cc1ccc(C)c(OCCn2ccnc2)c1`, the solubility (kinetic) was determined as 24.7 µg/mL (≈ 114 µM).
The value for `CC1CCCN(C(=O)COC(=O)COc2ccc(Cl)cc2)C1` (centres undefined) was 20.2 µg/mL (≈ 62 µM).
The molecule `O=C(c1ccc(S(=O)(=O)NCc2ccco2)cc1)N1CCN(c2ccccc2)CC1` displayed a solubility (kinetic) of 9.1 µg/mL (≈ 21.4 µM).
Turning to `Cc1ccc(S(=O)(=O)NCC(=O)OCC(=O)NC2CCCCC2)cc1`, the solubility (kinetic) was more than 55.3 µg/mL.
With `O=C(Nc1ccc2[nH]c(=O)[nH]c2c1)c1cccc([N+](=O)[O-])c1`, the kinetic solubility amounted to 1.2 µg/mL (≈ 4.02 µM).
`CSc1ccc(CN(C)C(C)C(=O)NCC2CCCCC2)cc1` (centres undefined): the kinetic solubility came out at 28.3 µg/mL (≈ 84.6 µM). This solubility kinetic lies about 24-fold higher than the previous one.
As to `COc1ccc(Cl)cc1NC(=O)C1CC(c2ccccc2O)=NO1` (centres undefined), the kinetic solubility amounted to 0.9 µg/mL (≈ 2.6 µM).
Take `CCOc1cccc(OCCCCn2cnc3ccccc3c2=O)c1`: the solubility (kinetic) is 3.4 µg/mL (≈ 10 µM).
Next, `Cc1ccc(C(=O)Nc2ccc(OCc3ccccc3)cc2)s1`: 3.8 µg/mL (≈ 11.7 µM); `CC(C)CC(=O)Nc1ccc(C(=O)Nc2cccc(O)c2)cc1`: 26.7 µg/mL (≈ 85.5 µM); `O=C(Nc1cccc(N2C(=O)C=CC2=O)c1)c1cccs1`: more than 44.7 µg/mL.
Molecule `NC(=O)C1CCN(c2oc(-c3cccs3)nc2S(=O)(=O)c2ccc(Br)cc2)CC1` came in with a solubility (kinetic) of 17.6 µg/mL (≈ 35.5 µM).
As for `O=C1CSC(c2ccc(F)cc2)N1c1ccccc1F` (centres undefined), the kinetic solubility was 36.8 µg/mL (≈ 126 µM).
The value for `NS(=O)(=O)c1ccc(NC(=O)Cc2cccs2)cc1` was more than 44.5 µg/mL; that for `Cc1cc(C)c(NC(=O)CN(C)CC(=O)Nc2cccc(S(=O)(=O)N(C)c3ccccc3)c2)c(C)c1.O=C(O)C(=O)O` was 14.3 µg/mL.

By solubility (kinetic) is commonly meant the concentration staying in solution when a stock, usually in DMSO, is diluted into the medium.
